Patent US5840910A, “Pyridine derivatives having anti-ulcerative activity” (Esai Co., Ltd., priority 1986, dated 1998)
Entries after “also recorded” stand apart in the source; their conditions may differ. Structures can show the parent of a compound that is named as a salt.

Tests used:
[1] = molecular target: T1, H^+ -K^+ ATPase (Sus scrofa, UniProt P19156); test: Inhibition against the activity of H^+ -K^+ ATPase; format: biochemical, pig; details: for IC50: 40 mM Tris-HCl pH 7.40, 37° C., 30 minutes incubation
T1 construct: Prepared from the fundic-glands of a fresh mucous membrane of a pig stomach; from tissue; host or cells: pig stomach, fundic glands of fresh mucous membrane (modified method of Saccomani et al., 1977)
Experimental: Prepared from the fundic-glands of a fresh mucous membrane of a pig stomach according to a modified method of Saccomani al. (see Biochem. and Biophys. Acta, 464; 313 (1977)). The compound of the present invention was incubated at various concentration in a 40 mM Tris-HCl buffer solution having a pH of 7.40 together with H^+ -K^+ ATPase and 10 μg/ml of a protein at 37° C. for 30 minutes, followed by the addition of 15 mM KCl. After 10 minutes, the ATPase reaction was initiated by the addition of 3 mM of MgCl2 and ATP. After 10 minutes, the amount of the released inorganic phosphoric acid was determined according to the method of Yoda and Hokin (see Biochem. Biophys. Res. Com., 40, 880 (1970)). The test compound was used as a solution in methanol. The inhibitory effect was determined by subtracting the amount of the released inorganic acid observed with respect to the case wherein a solution of a test compound was added from that with respect to the control wherein only a solvent was added to determine a difference and dividing this difference by the latter amount and shown by percentage.

[2] = Toxicological influence, oral, one week, rats; format: in vivo; details: rats (printed rate), 50 mg/kg per day for one week
[3] = Toxicological influence, oral, one week, beagle dogs; format: in vivo; details: 10 mg/kg per day for one week
[4] = tested on: pentagastrin-stimulated gastric acid secretion; test: Pentagastrin-stimulated gastric acid secretion and its recovery in chronic gastric fistula dogs; format: in vivo, dog; details: for Time required for the acid secretion to recover: 4 mg per kg intraduodenal; for Gastric acid secretion, percent of the control response, 1 hr: 1 hr after 4 mg per kg intraduodenal; for Gastric acid secretion, percent of the control response, 24 hr: 24 hr after 4 mg per kg intraduodenal; for Gastric acid secretion, percent of the control response, 48 hr: 48 hr after 4 mg per kg intraduodenal; for Inhibition of pentagastrin-stimulated gastric acid secretion (in words): within one hour from intraduodenal administration, 4 mg per kg
Experimental: Chronic gastric fistula dogs were used. The test compound was intraduodenally administered to each dog in an amount of 4 mg per kg. In 1, 24, 48 and 72 hours, respectively, from the time of administration, pentagastrin (6 micron grams per kg) was injected intramuscularly into the dog. Gastric acid secretion, determined and recovery thereof, was determined in terms of percent of the control response.

[5] = tested on: histamine-stimulated gastric acid secretion; test: Inhibitory effect on histamine-stimulated gastric acid secretion of chronic gastric fistula dogs; format: in vivo, dog; details: for ED50: Canis lupus familiaris, 1 h, intraduodenal, histamine-stimulated, read-out: ID 50, calculated from the dose-inhibition curve
Experimental: Chronic gastric fistula dogs were used. Gastric acid secretion of each dog was stimulated by infusing 100 micron grams per kg per hour of histamine. After one hour of histamine infusion, each of the test compounds was administered intraduodenally to each dog, and after one hour of administration, the amount of gastric acid secretion of each test dog was determined. Results wore compared with the control group to which no test compound had been administered and are expressed in terms of percent inhibition.

T1 sequence (P19156 2-1034 limits assumed): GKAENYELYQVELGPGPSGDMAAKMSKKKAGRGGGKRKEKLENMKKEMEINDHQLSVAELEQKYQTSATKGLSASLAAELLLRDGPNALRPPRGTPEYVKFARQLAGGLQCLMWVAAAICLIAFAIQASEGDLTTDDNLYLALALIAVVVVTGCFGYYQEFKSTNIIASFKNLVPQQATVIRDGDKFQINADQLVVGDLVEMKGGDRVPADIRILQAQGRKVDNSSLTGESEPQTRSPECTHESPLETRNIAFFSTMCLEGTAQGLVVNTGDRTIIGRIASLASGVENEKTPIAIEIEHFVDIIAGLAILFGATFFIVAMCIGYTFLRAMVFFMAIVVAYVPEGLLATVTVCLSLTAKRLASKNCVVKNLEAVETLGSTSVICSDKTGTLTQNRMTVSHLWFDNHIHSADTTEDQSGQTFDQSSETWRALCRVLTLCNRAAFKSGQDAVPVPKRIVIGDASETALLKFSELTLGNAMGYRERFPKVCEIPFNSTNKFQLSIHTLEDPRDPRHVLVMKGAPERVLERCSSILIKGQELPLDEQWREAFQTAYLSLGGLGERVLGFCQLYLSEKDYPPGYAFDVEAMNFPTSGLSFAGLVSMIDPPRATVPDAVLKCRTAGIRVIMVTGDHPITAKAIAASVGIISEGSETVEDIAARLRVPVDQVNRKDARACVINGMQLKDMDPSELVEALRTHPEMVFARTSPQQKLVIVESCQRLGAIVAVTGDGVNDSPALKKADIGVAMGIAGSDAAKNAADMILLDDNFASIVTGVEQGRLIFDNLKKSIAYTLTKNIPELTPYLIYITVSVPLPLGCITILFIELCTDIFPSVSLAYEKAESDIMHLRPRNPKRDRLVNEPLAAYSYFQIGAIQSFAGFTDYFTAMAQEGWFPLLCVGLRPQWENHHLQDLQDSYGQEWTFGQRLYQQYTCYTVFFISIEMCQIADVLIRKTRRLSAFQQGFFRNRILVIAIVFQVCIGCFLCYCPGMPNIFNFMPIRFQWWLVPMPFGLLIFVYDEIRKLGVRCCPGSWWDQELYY
T1 sequence (P18434 whole entry partner): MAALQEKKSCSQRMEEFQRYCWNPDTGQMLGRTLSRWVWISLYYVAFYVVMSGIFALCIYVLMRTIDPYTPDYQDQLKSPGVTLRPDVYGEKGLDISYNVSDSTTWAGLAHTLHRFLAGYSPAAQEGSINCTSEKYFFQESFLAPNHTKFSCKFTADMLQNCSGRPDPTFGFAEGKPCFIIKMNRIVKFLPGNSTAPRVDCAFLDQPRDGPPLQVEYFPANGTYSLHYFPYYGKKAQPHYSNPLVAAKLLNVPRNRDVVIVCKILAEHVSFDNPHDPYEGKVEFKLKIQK

In the case of `Cc1c(OCCOCCOCc2ccccc2)ccnc1C[S+]([O-])c1nc2cc(C(F)(F)F)ccc2[nH]1` (stereo not drawn) [Compound 13], the IC50 [1] is reported as 630 nM.

Compound `COc1ccc2[nH]c([S+]([O-])Cc3nccc(OCCN4C(=O)CCC4=O)c3C)nc2c1` (stereo not drawn) [Compound 14] has an IC50 [1] of 10000 nM.

In the case of `COc1ccc2[nH]c([S+]([O-])Cc3nccc(OCCN4CCCC4=O)c3C)nc2c1` (stereo not drawn) [Compound 9], the IC50 [1] is reported as 13000 nM.

With `COCCOCCOc1ccnc(C[S+]([O-])c2nc3cc(OC)ccc3[nH]2)c1C` (stereo not drawn) [Compound 7] the IC50 [1] was 1700 nM.

Compound `COc1ccc2[nH]c([S+]([O-])Cc3nccc(OCCO)c3C)nc2c1` (stereo not drawn) [Compound 17] has an IC50 [1] of 3500 nM.

`Cc1c(OCCOCc2ccccc2)ccnc1C[S+]([O-])c1nc2cc(C(F)(F)F)ccc2[nH]1` (stereo not drawn) [Compound 3] showed an IC50 [1] of 1000 nM.

`Cc1c(OCCN2C(=O)CCC2=O)ccnc1C[S+]([O-])c1nc2cc(C(F)(F)F)ccc2[nH]1` (stereo not drawn) [Compound 15] showed an IC50 [1] of 72 nM.

`CSCCOc1ccnc(C[S+]([O-])c2nc3ccccc3[nH]2)c1C` (stereo not drawn) [Compound 20] gave an IC50 [1] of 2300 nM.

For `COCCCOc1ccnc(C[S+]([O-])c2nc3ccccc3[nH]2)c1C` (stereo not drawn) [Compound 19, Sodium Salt of 2-[{4-(3-Methoxypropoxy)-3-Methylpyridine-2-Yl}Methylsulfinyl]-1H-Benzimidazole], the Toxicological influence [2] was “No toxicological influence has been observed”, the Toxicological influence [3] was “No toxicological influence has been observed” and the “Inhibitory effect on the activity of H^+ -K^+ ATPase (in words)” value [1] was “significant inhibitory effect”. The IC50 [1] was 1700 nM, the “Time required for the acid secretion to recover” value ([4]; pentagastrin) was 48 h and the “Gastric acid secretion, percent of the control response, 1 hr” value ([4]; pentagastrin) was 0%. The “Gastric acid secretion, percent of the control response, 24 hr” value ([4]; pentagastrin) was 61.9%, the “Gastric acid secretion, percent of the control response, 48 hr” value ([4]; pentagastrin) was 121.5% and the “Recovery of gastric acid secretion (in words)” value ([4]; dog, in vivo) was “excellent gastric acid secretion recovery”. The “Inhibition of pentagastrin-stimulated gastric acid secretion (in words)” value [4] was “completely inhibited”, the “% Inhibition of acid output” value ([5]; 31.25 μg/Kg intraduodenal) was 34.4% and the “% Inhibition of acid output” value ([5]; 62.5 μg/Kg intraduodenal) was 50.1%. For the same compound, the “% Inhibition of acid output” value ([5]; 125 μg/Kg intraduodenal) was 67.7%, the “% Inhibition of acid output” value ([5]; 250 μg/Kg intraduodenal) was 87.4% and the “% Inhibition of acid output” value ([5]; 500 μg/Kg intraduodenal) was 100.0%. The ED50 [5] was 0.0599 mg/kg and the “Potency compared with Omeprazole, inhibition of gastric acid secretion” value ([5]; versus Omeprazole) was “two times more potent; also recorded: more potent inhibitory activity on gastric acid secretion as compared with Omeprazole”.

Work on `Cc1c(OCCO)ccnc1C[S+]([O-])c1nc2ccccc2[nH]1` (stereo not drawn) [Compound 10] yielded an IC50 [1] of 1900 nM.

For `Cc1c(OCCN2C(=O)CCC2=O)ccnc1C[S+]([O-])c1nc2ccccc2[nH]1` (stereo not drawn) [Compound 4], the IC50 [1] was 11000 nM.

In the case of `COc1ccc2[nH]c([S+]([O-])Cc3nccc(OCCOCCOCc4ccccc4)c3C)nc2c1` (stereo not drawn) [Compound 11], the IC50 [1] is reported as 4200 nM.

Work on `Cc1c(OCCOCCOCc2ccccc2)ccnc1C[S+]([O-])c1nc2ccccc2[nH]1` (stereo not drawn) [Compound 12] yielded an IC50 [1] of 2600 nM.

`COCCOCCOc1ccnc(C[S+]([O-])c2nc3ccccc3[nH]2)c1C` (stereo not drawn) [Compound 18] gave an IC50 [1] of 3300 nM.

In the case of `Cc1c(OCCN2CCCC2=O)ccnc1C[S+]([O-])c1nc2ccccc2[nH]1` (stereo not drawn) [Compound 5], the IC50 [1] is reported as 2400 nM.

For `Cc1c(OCCCO)ccnc1C[S+]([O-])c1nc2ccccc2[nH]1` (stereo not drawn) [Compound 22], the IC50 [1] was 1900 nM.

`Cc1c(OCCOCc2ccccc2)ccnc1C[S+]([O-])c1nc2ccccc2[nH]1` (stereo not drawn) [Compound 1] showed an IC50 [1] of 920 nM.

For `Cc1c(OCCOc2ccccc2)ccnc1C[S+]([O-])c1nc2ccccc2[nH]1` (stereo not drawn) [Compound 21], the IC50 [1] was 1300 nM.

In the case of `Cc1c(OCCOCCCl)ccnc1C[S+]([O-])c1nc2ccccc2[nH]1` (stereo not drawn) [Compound 23], the IC50 [1] is reported as 1400 nM.

`Cc1c(OCCN2CCCC2=O)ccnc1C[S+]([O-])c1nc2cc(C(F)(F)F)ccc2[nH]1` (stereo not drawn) [Compound 16] showed an IC50 [1] of 1700 nM.

With `COCCOCCOc1ccnc(C[S+]([O-])c2nc3cc(C(F)(F)F)ccc3[nH]2)c1C` (stereo not drawn) [Compound 6] the IC50 [1] was 550 nM.

In the case of `COc1ccc2[nH]c([S+]([O-])Cc3ncc(C)c(OC)c3C)nc2c1` (stereo not drawn) [Omeprazole, reference compound], the “Time required for the acid secretion to recover” value ([4]; pentagastrin) is reported as 72 h, the “Gastric acid secretion, percent of the control response, 1 hr” value ([4]; pentagastrin) is reported as 0.3% and the “Gastric acid secretion, percent of the control response, 24 hr” value ([4]; pentagastrin) is reported as 32.3%. For the same compound, the “Gastric acid secretion, percent of the control response, 48 hr” value ([4]; pentagastrin) was 69.1%, the “Gastric acid secretion, percent of the control response, 72 hr” value ([4]; 72 hr after 4 mg per kg intraduodenal, pentagastrin) was 108.4% and the “Inhibition of pentagastrin-stimulated gastric acid secretion (in words)” value [4] was “completely inhibited”. The “% Inhibition of acid output” value ([5]; 62.5 μg/Kg intraduodenal) was 41.1%, the “% Inhibition of acid output” value ([5]; 125 μg/Kg intraduodenal) was 48.6% and the “% Inhibition of acid output” value ([5]; 250 μg/Kg intraduodenal) was 62.1%. The “% Inhibition of acid output” value ([5]; 500 μg/Kg intraduodenal) was 91.2%, the “% Inhibition of acid output” value ([5]; 1000 μg/Kg intraduodenal) was 100.0% and the ED50 [5] was 0.112 mg/kg.

In the case of `Cc1c(OCCOCc2ccccn2)ccnc1C[S+]([O-])c1nc2ccccc2[nH]1` (stereo not drawn) [Compound 8], the IC50 [1] is reported as 1200 nM.

Compound `COc1ccc2[nH]c([S+]([O-])Cc3nccc(OCCOCc4ccccc4)c3C)nc2c1` (stereo not drawn) [Compound 2] has an IC50 [1] of 1400 nM.
